Earlier results on one compound are cited in patent US20020076434A1, “Liposomal retinoid therapy in hormone refractory prostate cancer” (Aronex Pharmaceuticals, Inc., priority 2000, published 2002).

Data set [1] deals with HRPC.
Data set [2] concerns HRPC. Conditions: Kelly: 50 mg/m^2 every 8 hours for 8 weeks, 14 patients; Trump: days 1-14 every 22 days, 17 patients.
[3] abbreviates: one patient achieving CR, baseline PSA 25.0 ng/mL.

As for `CC1=C(/C=C/C(C)=C/C=C/C(C)=C/C(=O)O)C(C)(C)CCC1` [oral ATRA, all trans retinoic acid], the “Number of biological responses” value in data set [1] (26 HRPC patients, oral 45 mg/m^2 daily for 7 days, 7 days off, resumed Day 14) was 4. Besides, in data set [1] (setting [3]), the Maximum response duration is listed as 3 month and the “Time serum PSA remained within normal limits after the last dose” value is given as 8 weeks. The Tumor response result in data set [2] is “little tumor response”.
